Source: patent US10034861B2 (priority 2016, dated 2018)
Read-outs that look alike come from different tables or passages of the source.

What was measured:
Format in all cases: biochemical
[1] = target: PDE1C (Homo sapiens (Human), UniProt Q14123); test: biochemical
Text: (§1) Table 1 lists the IC50 value for inhibition of PDE1 by the compounds of the invention. […] PDE1 assays are described in the Experimental Section.

[2] = target: PDE1A (Homo sapiens (Human), UniProt P54750); test: biochemical; details: 15 nM tritium labelled cAMP, 1 hr at room temperature, SPA beads
PDE1A, sequence (P54750 whole entry): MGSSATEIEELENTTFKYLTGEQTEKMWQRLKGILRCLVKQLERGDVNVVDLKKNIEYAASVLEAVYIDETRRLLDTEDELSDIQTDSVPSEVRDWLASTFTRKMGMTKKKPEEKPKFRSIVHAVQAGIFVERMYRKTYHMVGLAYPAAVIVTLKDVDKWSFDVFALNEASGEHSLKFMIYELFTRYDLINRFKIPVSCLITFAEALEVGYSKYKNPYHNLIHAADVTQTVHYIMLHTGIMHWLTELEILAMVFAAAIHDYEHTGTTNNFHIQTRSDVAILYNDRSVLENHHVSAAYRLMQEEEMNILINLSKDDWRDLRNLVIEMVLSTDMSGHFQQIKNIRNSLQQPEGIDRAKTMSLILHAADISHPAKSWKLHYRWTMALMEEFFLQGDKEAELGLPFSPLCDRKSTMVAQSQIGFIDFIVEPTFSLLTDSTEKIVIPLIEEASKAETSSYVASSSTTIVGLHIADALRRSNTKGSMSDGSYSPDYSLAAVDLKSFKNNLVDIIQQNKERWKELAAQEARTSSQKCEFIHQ
Text: as §1

[3] = target: PDE1B (Homo sapiens (Human), UniProt Q01064); test: PDE1 inhibition assay (PDE1B); details: 15 nM tritium labelled cAMP, 1 hr at room temperature, SPA beads
PDE1B, sequence (Q01064 whole entry): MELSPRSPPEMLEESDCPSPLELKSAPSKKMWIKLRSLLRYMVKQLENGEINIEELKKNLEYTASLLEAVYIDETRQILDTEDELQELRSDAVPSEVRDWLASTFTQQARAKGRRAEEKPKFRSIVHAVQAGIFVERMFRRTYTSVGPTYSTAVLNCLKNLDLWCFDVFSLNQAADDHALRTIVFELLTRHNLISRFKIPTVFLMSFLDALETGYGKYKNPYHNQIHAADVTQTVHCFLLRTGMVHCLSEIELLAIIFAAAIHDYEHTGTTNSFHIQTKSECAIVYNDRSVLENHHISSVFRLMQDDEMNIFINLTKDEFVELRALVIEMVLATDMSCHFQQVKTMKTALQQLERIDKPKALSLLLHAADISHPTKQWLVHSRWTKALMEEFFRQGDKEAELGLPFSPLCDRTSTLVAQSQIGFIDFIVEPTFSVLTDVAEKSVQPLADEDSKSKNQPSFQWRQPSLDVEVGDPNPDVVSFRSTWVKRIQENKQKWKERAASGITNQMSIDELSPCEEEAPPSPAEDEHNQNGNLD
Text: as §1

[4] = 15 nM tritium labelled cAMP, 1 hr at room temperature, SPA beads

PDE1C, sequence (Q14123 whole entry): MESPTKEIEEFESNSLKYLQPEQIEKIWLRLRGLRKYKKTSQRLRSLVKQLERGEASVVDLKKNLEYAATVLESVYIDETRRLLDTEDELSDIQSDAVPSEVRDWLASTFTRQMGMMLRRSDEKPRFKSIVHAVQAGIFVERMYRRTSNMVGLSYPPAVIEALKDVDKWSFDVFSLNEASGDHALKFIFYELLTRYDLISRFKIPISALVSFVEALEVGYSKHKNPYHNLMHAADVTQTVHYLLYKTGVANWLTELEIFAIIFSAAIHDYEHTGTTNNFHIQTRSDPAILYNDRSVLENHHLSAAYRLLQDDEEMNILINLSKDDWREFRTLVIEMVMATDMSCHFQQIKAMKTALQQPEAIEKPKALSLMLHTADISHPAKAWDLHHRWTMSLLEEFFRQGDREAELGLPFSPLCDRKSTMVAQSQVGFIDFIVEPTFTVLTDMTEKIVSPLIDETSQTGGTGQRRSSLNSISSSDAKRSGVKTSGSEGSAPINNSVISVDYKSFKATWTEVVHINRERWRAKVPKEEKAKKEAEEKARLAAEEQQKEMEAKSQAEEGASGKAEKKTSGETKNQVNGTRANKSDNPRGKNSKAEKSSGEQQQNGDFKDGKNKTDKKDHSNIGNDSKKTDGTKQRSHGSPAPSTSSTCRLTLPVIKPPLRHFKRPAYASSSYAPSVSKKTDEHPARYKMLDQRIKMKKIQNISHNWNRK

## CCOc1ncccc1-c1cc(NCc2cccc(C)c2)c2c(cnn2C(C)C)n1 [Example 23, 5-(2-ethoxy-3-pyridyl)-1-isopropyl-N-(m-tolylmethyl)pyrazolo[4,3-b]pyridin-7-amine]
[1]; [4]
  IC50: 750 nM
[2]
  IC50: 240 nM
[3]; read-out: PDE1B, IC50
  IC50: 38 nM

## CCOc1ncccc1-c1cc(NCc2nc(C)no2)c2c(n1)c(C)nn2C(C)C [Example 30, 5-(2-ethoxy-3-pyridyl)-1-isopropyl-3-methyl-N-[(3-methyl-1,2,4-oxadiazol-5-yl)methyl]pyrazolo[4,3-b]pyridin-7-amine]
[1]; [4]
  IC50: 31 nM
[2]
  IC50: 15 nM
[3]; read-out: PDE1B, IC50
  IC50: 1.3 nM

## CCOc1ncccc1-c1cc(NCc2cnn(C)c2)c2c(cnn2C)n1 [Example 16, 5-(2-ethoxypyridin-3-yl)-1-methyl-N-((1-methyl-1H-pyrazol-4-yl)methyl)-1H-pyrazolo[4,3-b]pyridin-7-amine]
[1]; [4]
  IC50: 1800 nM
[2]
  IC50: 670 nM
[3]; read-out: PDE1B, IC50
  IC50: 92 nM

## CCOc1ncccc1-c1cc(NCc2ccnc(C)n2)c2c(n1)c(C)nn2C(C)C [Example 105, 5-(2-ethoxy-3-pyridyl)-1-isopropyl-3-methyl-N-[(2-methylpyrimidin-4-yl)methyl]pyrazolo[4,3-b]pyridin-7-amine]
[1]; [4]
  IC50: 150 nM
[2]
  IC50: 54 nM
[3]; read-out: PDE1B, IC50
  IC50: 12 nM

## Cc1nn(C)cc1-c1cc(NCc2cnn(C)c2)c2c(n1)c(C)nn2C(C)C [Example 61, 5-(1,3-dimethylpyrazol-4-yl)-1-isopropyl-3-methyl-N-[(1-methylpyrazol-4-yl)methyl]pyrazolo[4,3-b]pyridin-7-amine]
[1]; [4]
  IC50: 680 nM
[2]
  IC50: 550 nM
[3]; read-out: PDE1B, IC50
  IC50: 120 nM

## CCOc1ncccc1-c1cc(NCc2cnn(C)c2)c2c(cnn2C(C)C)n1 [Example 25, 5-(2-ethoxy-3-pyridyl)-1-isopropyl-N-[(1-methylpyrazol-4-yl)methyl]pyrazolo[4,3-b]pyridin-7-amine]
[1]; [4]
  IC50: 150 nM
[2]
  IC50: 56 nM
[3]; read-out: PDE1B, IC50
  IC50: 4.6 nM

## CCOc1ncccc1-c1cc(NCc2cnn(C)c2)c2c(n1)c(CF)nn2C(C)C [Example 199, 5-(2-ethoxypyridin-3-yl)-3-(fluoromethyl)-1-isopropyl-N-((1-methyl-1H-pyrazol-4-yl)methyl)-1H-pyrazolo[4,3-b]pyridin-7-amine]
[1]; [4]
  IC50: 26 nM
[2]
  IC50: 7.4 nM
[3]; read-out: PDE1B, IC50
  IC50: 0.75 nM

## Cc1nn(C(C)C)c2c(NCc3cc[nH]n3)cc(-c3ccc[nH]c3=O)nc12 [Example 187, 3-[1-isopropyl-3-methyl-7-(1H-pyrazol-3-ylmethylamino)pyrazolo[4,3-b]pyridin-5-yl]-1H-pyridin-2-one]
[1]; [4]
  IC50: 250 nM
[2]
  IC50: 140 nM
[3]; read-out: PDE1B, IC50
  IC50: 18 nM

## Cc1nn(C(C)C)c2c(NCc3cnn(C)c3)cc(-c3ccccc3)nc12 [Example 64, 1-isopropyl-3-methyl-N-[(1-methylpyrazol-4-yl)methyl]-5-phenyl-pyrazolo[4,3-b]pyridin-7-amine]
[1]; [4]
  IC50: 47 nM
[2]
  IC50: 52 nM
[3]; read-out: PDE1B, IC50
  IC50: 12 nM

## CCOc1ncccc1-c1cc(NCc2ccn(C)n2)c2c(n1)c(C)nn2C(C)C [Example 60, 5-(2-ethoxy-3-pyridyl)-1-isopropyl-3-methyl-N-[(1-methylpyrazol-3-yl)methyl]pyrazolo[4,3-b]pyridin-7-amine]
[1]; [4]
  IC50: 12 nM
[2]
  IC50: 6.5 nM
[3]; read-out: PDE1B, IC50
  IC50: 0.59 nM

## COc1ncccc1-c1cc(NCc2cccnc2C(F)(F)F)c2c(n1)c(C)nn2C(C)C [Example 170, 1-isopropyl-5-(2-methoxy-3-pyridyl)-3-methyl-N-[[2-(trifluoromethyl)-3-pyridyl]methyl]pyrazolo[4,3-b]pyridin-7-amine]
[1]; [4]
  IC50: 46 nM
[2]
  IC50: 42 nM
[3]; read-out: PDE1B, IC50
  IC50: 5.3 nM

## CCOc1ncccc1-c1cc(CNc2ncn(C)n2)c2c(n1)c(C)nn2C(C)C [Example 158, N-[[5-(2-ethoxy-3-pyridyl)-1-isopropyl-3-methyl-pyrazolo[4,3-b]pyridin-7-yl]methyl]-1-methyl-1,2,4-triazol-3-amine]
[1]; [4]
  IC50: 50 nM
[2]
  IC50: 23 nM
[3]; read-out: PDE1B, IC50
  IC50: 4.9 nM

## CCOc1ncccc1-c1cc(NCc2ccc(OC)nc2)c2c(n1)c(C)nn2C(C)C [Example 111, 5-(2-ethoxy-3-pyridyl)-1-isopropyl-N-[(6-methoxy-3-pyridyl)methyl]-3-methyl-pyrazolo[4,3-b]pyridin-7-amine]
[1]; [4]
  IC50: 68 nM
[2]
  IC50: 28 nM
[3]; read-out: PDE1B, IC50
  IC50: 1.4 nM

## CCCOc1ncccc1-c1cc(NCc2cnn(C)c2)c2c(n1)c(C)nn2C(C)C [Example 94, 1-isopropyl-3-methyl-N-[(1-methylpyrazol-4-yl)methyl]-5-(2-propoxy-3-pyridyl)pyrazolo[4,3-b]pyridin-7-amine]
[1]; [4]
  IC50: 4.9 nM
[2]
  IC50: 1.4 nM
[3]; read-out: PDE1B, IC50
  IC50: 0.065 nM

## CCOc1ncccc1-c1cc(NCc2nnc(C)o2)c2c(cnn2C(C)CC)n1 (single isomer, unassigned) [Example 138, 5-(2-ethoxy-3-pyridyl)-N-[(5-methyl-1,3,4-oxadiazol-2-yl)methyl]-1-[1-methylpropyl]pyrazolo[4,3-b]pyridin-7-amine]
[1]
  IC50: 180 nM
[2]
  IC50: 93 nM
[3]; PDE1B, IC50 (nM)
  IC50: 6.8 nM

## Cc1nn(C(C)C)c2c(NCc3cnn(C)c3)cc(-c3nncn3C)nc12 [Example 203, 1-isopropyl-3-methyl-N-[(1-methylpyrazol-4-yl)methyl]-5-(4-methyl-1,2,4-triazol-3-yl)pyrazolo[4,3-b]pyridin-7-amine]
[1]; [4]
  IC50: 420 nM
[2]
  IC50: 410 nM
[3]; read-out: PDE1B, IC50
  IC50: 180 nM

## CCOc1ncccc1-c1cc(NCc2cc[nH]n2)c2c(n1)c(C)nn2C(C)C [Example 39, 5-(2-ethoxy-3-pyridyl)-1-isopropyl-3-methyl-N-(1H-pyrazol-3-ylmethyl)pyrazolo[4,3-b]pyridin-7-amine]
[1]; [4]
  IC50: 13 nM
[2]
  IC50: 8.1 nM
[3]; read-out: PDE1B, IC50
  IC50: 0.43 nM

## Cc1nocc1-c1cc(NCc2cnn(C)c2)c2c(n1)c(C)nn2C(C)C [Example 194, 1-isopropyl-3-methyl-5-(3-methylisoxazol-4-yl)-N-[(1-methylpyrazol-4-yl)methyl]pyrazolo[4,3-b]pyridin-7-amine]
[1]; [4]
  IC50: 21 nM
[2]
  IC50: 95 nM
[3]; read-out: PDE1B, IC50
  IC50: 23 nM

## CCOc1ncccc1-c1cc(NCc2cnn(C)c2)c2c(n1)c(C)nn2C1CC1 [Example 12, 1-cyclopropyl-5-(2-ethoxy-3-pyridyl)-3-methyl-N-[(1-methylpyrazol-4-yl)methyl]pyrazolo[4,3-b]pyridin-7-amine]
[1]; [4]
  IC50: 690 nM
[2]
  IC50: 200 nM
[3]; read-out: PDE1B, IC50
  IC50: 60 nM

## COc1ncccc1CNc1cc(-c2cccnc2C(F)(F)F)nc2c(C)nn(C(C)C)c12 [Example 183, 1-isopropyl-N-((2-methoxypyridin-3-yl)methyl)-3-methyl-5-(2-(trifluoromethyl)pyridin-3-yl)-1H-pyrazolo[4,3-b]pyridin-7-amine]
[1]; [4]
  IC50: 350 nM
[2]
  IC50: 290 nM
[3]; read-out: PDE1B, IC50
  IC50: 38 nM

## CCOc1ncccc1-c1cc(NCc2ccn(C)c(=O)c2)c2c(n1)c(C)nn2C(C)C [Example 78, 4-[[[5-(2-ethoxy-3-pyridyl)-1-isopropyl-3-methyl-pyrazolo[4,3-b]pyridin-7-yl]amino]methyl]-1-methyl-pyridin-2-one]
[1]; [4]
  IC50: 44 nM
[2]
  IC50: 27 nM
[3]; read-out: PDE1B, IC50
  IC50: 3.2 nM

## CCOc1ncccc1-c1cc(NCc2cccn(C)c2=O)c2c(n1)c(C)nn2C(C)C [Example 108, 3-[[[5-(2-ethoxy-3-pyridyl)-1-isopropyl-3-methyl-pyrazolo[4,3-b]pyridin-7-yl]amino]methyl]-1-methyl-pyridin-2-one]
[1]; [4]
  IC50: 12 nM
[2]
  IC50: 2.8 nM
[3]; read-out: PDE1B, IC50
  IC50: 0.36 nM
